Test results as given in publication PMC6471485, “Selective Inhibitors of a Human Prolyl Hydroxylase (OGFOD1) Involved in Ribosomal Decoding” (Chemistry (Weinheim an Der Bergstrasse, Germany), 2019).

Columns and labels:
OGFOD1 [1] = molecular target: T1, OGFOD1 (Homo sapiens, UniProt Q8N543); assay: wLOGSY NMR binding experiment with OGFOD1; conditions: 120 µM inhibitor, 15 µM OGFOD1
T1 sequence (Q8N543 1-542): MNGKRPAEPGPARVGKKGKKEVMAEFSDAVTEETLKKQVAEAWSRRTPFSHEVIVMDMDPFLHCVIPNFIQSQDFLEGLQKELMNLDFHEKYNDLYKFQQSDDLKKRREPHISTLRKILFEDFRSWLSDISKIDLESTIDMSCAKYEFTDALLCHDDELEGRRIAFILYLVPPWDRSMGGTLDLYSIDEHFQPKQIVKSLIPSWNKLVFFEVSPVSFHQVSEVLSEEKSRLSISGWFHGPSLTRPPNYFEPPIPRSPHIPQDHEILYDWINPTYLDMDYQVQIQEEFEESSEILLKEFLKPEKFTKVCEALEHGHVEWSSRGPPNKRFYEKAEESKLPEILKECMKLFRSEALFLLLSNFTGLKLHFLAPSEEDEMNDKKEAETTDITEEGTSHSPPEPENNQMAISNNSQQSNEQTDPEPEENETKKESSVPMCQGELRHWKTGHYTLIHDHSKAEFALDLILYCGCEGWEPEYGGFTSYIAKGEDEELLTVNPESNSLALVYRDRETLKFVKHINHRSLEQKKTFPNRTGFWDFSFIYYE
Description: (§1) total echo time of 40 ms, a relaxation delay of 2 s, with 256 scans. Water suppression was achieved by presaturation. Samples contained 30 µM apo-PHD2181-426 or OGFOD1, supplemented with 60 µM Zn(II), 30 µM of inhibitor, all in 50 mM Tris-d11, pH 7.5, 10 % D2O, […]
(§2) wLOGSY Binding Experiments: For water-ligand observed gradient spectroscopy (wLOGSY) analyses, typical experimental parameters were the following: mixing time, 1 s; relaxation delay, 2 s; number of transients, 512. Solvent excitation was achieved using a 16-ms 180° selective rectangular shape pulse with 1,000 points (Squa100.1000) set at the H2O frequency.
Water suppression was achieved by a 2-ms sinc pulse (Sinc1.1000) at the H2O frequency.
Samples contained 5-fold molar excess inhibitor:protein as detailed in the figure legends; all analyses were in 50 mM Tris-d11, pH 7.5, 10 % D2O, 90 % H2O supplemented with 60 µM […]
Competition Experiments by 2OG Displacement: 2OG displacement assays[12] were performed using CPMG-edited 1H spectra. The PROJECT-CPMG sequence was applied as described by Aguilar et al.[11] The standard experimental parameters used were a total echo time of 40 ms, a relaxation delay of 2 s, with 160 scans. Water suppression was achieved by presaturation. The 2OG methylene resonance at 2.35 ppm was monitored. The percentage 2OG displacement was […]
% 2OG displacement = !2OG%!2OG(0) ×100 […]

OGFOD1 [2] = molecular target: T1, OGFOD1; assay: 2OG displacement from OGFOD1 by CPMG-edited 1H NMR; type: binding; conditions: 10 µM 2OG, 10 µM OGFOD1, 70 µM inhibitor
Description: as §1
as §2, with “frequency. […]” for “frequency.”
Competition Experiments by 2OG Displacement: 2OG displacement assays[12] were performed using CPMG-edited 1H spectra. […] The 2OG methylene resonance at 2.35 ppm was monitored. […]
HeLa cells were cultured in DMEM media supplemented with 10 % fetal bovine serum, 4 mM L-glutamine, 100 U/mL penicillin, and 100 µg/mL streptomycin. […] Cell extracts were analyzed by SDS-PAGE, electroblotted onto PVDF membranes (Millipore) and probed with anti-HIF-1α antibody (clone 54, BD Transduction Laboratories) at 1:1000 dilution for 1 h at room temperature. […] Target proteins were detected with SuperSignal Chemiluminescent […]
Figure S15. Single-concentration qualitative 2OG displacement as monitored by CPMG-edited 1H NMR spectroscopy. […]

[3] = test system: PHD enzymes in HeLa cells; assay: HIFα Western blot in HeLa cells (activity of PHD enzymes in cells); type: cell-based, human; conditions: HeLa cells treated 5 h, anti-HIF-1α Western blot
Description: supplemented with 80 µM Zn(II), 70 µM of inhibitor, all in 50 mM Tris-d11, pH 7.5, 10 % D2O, […]
Cell Culture and Immunoblotting
HeLa cells were cultured in DMEM media supplemented with 10 % fetal bovine serum, 4 mM L-glutamine, 100 U/mL penicillin, and 100 µg/mL streptomycin. Cells were treated with the indicated compounds, prepared in 1% DMSO, for 5 h. Following a PBS buffer rinse, cells were lysed in urea/SDS buffer supplemented with 1 mM dithiothreitol. Cell extracts were analyzed by SDS-PAGE, electroblotted onto PVDF membranes (Millipore) and probed with anti-HIF-1α antibody (clone 54, BD Transduction Laboratories) at 1:1000 dilution for 1 h at room temperature. The HRP-conjugated secondary antibody was then applied at room temperature for 1 h. Target proteins were detected with SuperSignal Chemiluminescent […]
ADMET in vitro Predictors
S9 liver microsome stability assays and MDCK-MDR1 efflux assays were carried out for CCT3 and CCT4 by Cyprotex (UK). Additional details are provided later in the Supporting

Structure (SMILES) | binding to OGFOD1 by wLOGSY NMR, in words (OGFOD1 [1]) | displacement of bound 2OG from OGFOD1, in words (OGFOD1 [2]) | HIFα stabilization in HeLa cells, in words [3]
Cn1c(O)c(C(=O)CCc2ccccc2)c(=O)n(C)c1=O [compound 26] | indicates a binding interaction | capable of displacing bound 2OG from the active site of OGFOD1 | did not stabilize HIFα
Cn1c(O)c(C(=O)CCc2cccs2)c(=O)n(C)c1=O [compound 42] | indicates a binding interaction | capable of displacing bound 2OG from the active site of OGFOD1 | did not stabilize HIFα
